Columns and labels:
Assay type in all cases: in vivo, human
[1] = tested on: neutrophil and monocyte activity (respiratory burst, phagocytosis, CD11b, CD14); assay: Randomized clinical trial in CPB patients: neutrophil and monocyte activity by flow cytometry; settings: perioperative taurolidine
Protocol: (§1) A randomized prospective clinical trial was performed. Thirty-four consecutive patients with an ejection fraction >30%, undergoing elective coronary artery bypass grafting were randomized into four groups. Groups A and B received taurolidine (250 mL 2% taurolidine) intravenously at induction through a central line. These patients also received two further doses of taurolidine at 12 hour intervals (2×250 mL 2% taurolidine/day) for the first 24 hours following surgery, but in group A crystalloid cardioplegia was used for myocardial protection and in group B blood cardioplegia was used. Groups C and D received saline vehicle controls while group C had crystalloid cardioplegia and group D received blood cardioplegia. Blood samples were taken pre-operatively, at the time of aortic unclamping, 2 hours, 6 hours and 24 hours post aortic unclamping. Neutrophil and monocyte respiratory burst, phagocytosis ability, CD11b and CD14 expression were assessed using flow cytometry. Plasma interleukins 6, 8 and 10 (IL-6, IL-8 and IL-10) and tumor necrosis factor α (TNF-α) were determined by Enzyme Linked Immuno Sorbent Assay. All the patients received the standard antibiotic prophylaxis for cardiac bypass surgery.
(§2) Patient selection was performed as follows. […]
(§3) Parameters 2-4 were assessed post aortic unclamping, 2 hours and 24 hours post-operatively.

[2] = tested on: arrhythmia in CPB patients; assay: Arrhythmia in CPB patients during crystalloid cardioplegia; settings: of ten patients; crystalloid cardioplegia with taurolidine 2% solution (placebo: 8 of ten)
Text: Ten patients underwent CPB using crystalloid cardioplegia with taurolidine 2% solution for myocardial protection. Another ten patients underwent CPB using crystalloid cardioplegia and a placebo for myocardial protection. Three of the patients treated with taurolidine experienced arrhythmia whereas 8 of the patients treated with placebo experienced arrhythmia.

IL-8 = assay: Randomized clinical trial in CPB patients: circulating IL-8 by ELISA; settings: perioperative taurolidine
Protocol: as §1, §2, §3

IL-10 = assay: Randomized clinical trial in CPB patients: IL-10 level by ELISA
Protocol: as §1
(§4) Patient selection was performed as follows. Patients undergoing elective coronary artery bypass grafting with an ejection fraction greater than or equal to 30%, no history of Diabetes mellitis and a normal chest x-ray were selected. Patients on ACE-inhibitors were not included in the study. The decision was made jointly by the consultant anesthetist and surgeon involved before inclusion in the study, and each patient was then randomized to drug or control. All the patients were nursed in the cardiac intensive care unit post operatively. Informed consent was sought from each patient before inclusion into the study.
as §3
(§5) Thirty-four patients were studied as described above.

IL-6 = assay: Randomized clinical trial in CPB patients: IL-6 level by ELISA
Protocol: as §1, §4, §3, §5

TNF-α = assay: Randomized clinical trial in CPB patients: circulating TNF-α by ELISA; settings: perioperative taurolidine
Protocol: as §1, §2, §3

[3] = 24 hours post aortic unclamping, crystalloid cardioplegia (Group A, n = 8), 250 mL 2% taurolidine i.v., mean ± s.d., *p < 0.05 vs. placebo
[4] = Group A vs. Group B, p<0.05 at 24 hours post aortic unclamping
[5] = crystalloid cardioplegia, Group A vs. Group C, 24 hour timepoint

O=S1(=O)CCN(CN2CCS(=O)(=O)NC2)CN1 [Taurolidine, bis(1,1-dioxoperhydro-1,2,4-thiadiazin-4-yl)methane]
Effect on neutrophil or monocyte activity [1]: did not appear to modify | Number of patients who experienced arrhythmia [2]: Three | Effect on circulating IL-8 (IL-8): did not appear to modify | Serum IL-10 level (IL-10; [3]): 28.2 ± 9.6* pg/mL | Interleukin-10, crystalloid vs. blood cardioplegia in taurolidine patients (IL-10; [4]): significantly up-regulated | Interleukin-10 vs. placebo (in words) (IL-10; [5]): significantly up-regulated | Serum IL-6 level (IL-6; [3]): 8.0 ± 1.4* pg/mL | Interleukin-6, crystalloid vs. blood cardioplegia in taurolidine patients (IL-6; [4]): significantly down-regulated | Effect on interleukin-6 in combination with blood cardioplegia (IL-6; blood cardioplegia, Group B vs. Group D): No beneficial effect | Interleukin-6 vs. placebo (in words) (IL-6; [5]): significantly down-regulated | Effect on circulating TNF-α (TNF-α): did not appear to modify

From patent US6641571B2, “Reduction of postoperative complications of cardiopulmonary bypass (CPB) surgery” (Ed. Geistlich Soehne AG fuer Chemische Industrie, priority 2000, dated 2003)
